Reference: publication PMC5218480 (PLoS ONE, 2017)

System: MV-4-11 cells
Assay: Gene expression microarray analysis (Affymetrix PrimeView) and GSEA
Assay type: cell-based, human
Parameters: RFU PODN (11730768_x_at) / Fold change /veh PODN (11730768_x_at) / RFU LINC00158 (11744669_a_at) / Fold change /veh LINC00158 (11744669_a_at) / RFU DUSP10 (11751237_a_at) / Fold change /veh DUSP10 (11751237_a_at) / RFU ID3 (11757404_x_at) / Fold change /veh ID3 (11757404_x_at) / RFU PLEKHG5 (11737974_s_at) / Fold change /veh PLEKHG5 (11737974_s_at) / RFU LRRC4B (11730491_at) / Fold change /veh LRRC4B (11730491_at) / RFU GIMAP4 (11747438_a_at) / Fold change /veh GIMAP4 (11747438_a_at) / RFU KRT8 (11758183_x_at) / Fold change /veh KRT8 (11758183_x_at) / RFU CNN1 (11734310_a_at) / Fold change /veh CNN1 (11734310_a_at) / RFU VPS37D (11726825_at) / Fold change /veh VPS37D (11726825_at) / RFU C10orf10 (11716522_x_at) / Fold change /veh C10orf10 (11716522_x_at) / RFU KIR2DL2 /// KIR2DL4 /// KIR2DL5A /// KIR2DL5B /// KIR2DS1 /// KIR2DS2 /// KIR2DS3 /// KIR2DS4 /// KIR3DL3 /// KIR3DL3 /// KIR3DS1 (11738374_at) / Fold change /veh KIR2DL2 /// KIR2DL4 /// KIR2DL5A /// KIR2DL5B /// KIR2DS1 /// KIR2DS2 /// KIR2DS3 /// KIR2DS4 /// KIR3DL3 /// KIR3DL3 /// KIR3DS1 (11738374_at) / RFU C1QL1 (11718748_at) / Fold change /veh C1QL1 (11718748_at) / RFU TMPRSS4 (11747572_a_at) / Fold change /veh TMPRSS4 (11747572_a_at) / RFU HAMP (11756126_x_at) / Fold change /veh HAMP (11756126_x_at) / RFU RNFT2 (11725882_a_at) / Fold change /veh RNFT2 (11725882_a_at) / RFU NR4A2 (11747474_a_at) / Fold change /veh NR4A2 (11747474_a_at) / RFU ABCC12 (11746883_a_at) / Fold change /veh ABCC12 (11746883_a_at) / RFU TMEM136 (11760407_x_at) / Fold change /veh TMEM136 (11760407_x_at) / RFU CLDN22 /// WWC2 (11732394_at) / Fold change /veh CLDN22 /// WWC2 (11732394_at) / RFU HLA-DPB1 (11760878_x_at) / Fold change /veh HLA-DPB1 (11760878_x_at) / RFU SPINT1 (11716480_a_at) / Fold change /veh SPINT1 (11716480_a_at) / RFU GAP43 (11754022_s_at) / Fold change /veh GAP43 (11754022_s_at) / RFU A4GNT (11735810_at) / Fold change /veh A4GNT (11735810_at) / RFU PRB3 (11715151_x_at) / Fold change /veh PRB3 (11715151_x_at) / RFU TUBB4B (11761932_at) / Fold change /veh TUBB4B (11761932_at) / RFU CAPN14 (11732068_a_at) / Fold change /veh CAPN14 (11732068_a_at) / RFU TMCC2 (11721928_a_at) / Fold change /veh TMCC2 (11721928_a_at) / RFU IRGQ (11745062_a_at) / Fold change /veh IRGQ (11745062_a_at) / RFU FAM174B (11720279_a_at) / Fold change /veh FAM174B (11720279_a_at) / RFU TMPRSS4 (11748680_a_at) / Fold change /veh TMPRSS4 (11748680_a_at) / RFU FAM212B (11763350_a_at) / Fold change /veh FAM212B (11763350_a_at) / RFU PLEKHG5 (11743358_a_at) / Fold change /veh PLEKHG5 (11743358_a_at) / RFU ZSCAN30 (11745921_a_at) / Fold change /veh ZSCAN30 (11745921_a_at) / RFU CMKLR1 (11741424_a_at) / Fold change /veh CMKLR1 (11741424_a_at) / RFU LOC101060620 /// MAPK8IP1 (11723275_at) / Fold change /veh LOC101060620 /// MAPK8IP1 (11723275_at) / RFU SPTSSB (11747773_x_at) / Fold change /veh SPTSSB (11747773_x_at) / RFU PRSS12 (11739890_at) / Fold change /veh PRSS12 (11739890_at) / RFU BIN1 (11741810_x_at) / Fold change /veh BIN1 (11741810_x_at) / RFU WNT11 (11732464_a_at) / Fold change /veh WNT11 (11732464_a_at) / RFU C10orf10 (11716521_a_at) / Fold change /veh C10orf10 (11716521_a_at) / RFU C5orf56 (11738089_at) / Fold change /veh C5orf56 (11738089_at) / RFU CYB561 (11721691_x_at) / Fold change /veh CYB561 (11721691_x_at) / RFU ANKRD19P (11752326_a_at) / Fold change /veh ANKRD19P (11752326_a_at) / RFU OR2T12 /// OR2T33 /// OR2T8 (11738714_s_at) / Fold change /veh OR2T12 /// OR2T33 /// OR2T8 (11738714_s_at) / RFU VCAN (11748164_a_at) / Fold change /veh VCAN (11748164_a_at) / RFU JSRP1 (11732532_at) / Fold change /veh JSRP1 (11732532_at) / RFU KRTAP10-11 (11738290_x_at) / Fold change /veh KRTAP10-11 (11738290_x_at) / RFU MYO3A (11730013_a_at) / Fold change /veh MYO3A (11730013_a_at) / RFU EBF3 (11725865_a_at) / Fold change /veh EBF3 (11725865_a_at) / RFU CAMK2N1 (11719241_x_at) / Fold change /veh CAMK2N1 (11719241_x_at) / RFU C5orf56 (11738088_a_at) / Fold change /veh C5orf56 (11738088_a_at) / RFU OLFML3 (11715873_a_at) / Fold change /veh OLFML3 (11715873_a_at) / RFU LOC100653217 /// NTM (11731650_a_at) / Fold change /veh LOC100653217 /// NTM (11731650_a_at) / RFU MAPK11 (11762145_a_at) / Fold change /veh MAPK11 (11762145_a_at) / RFU FIZ1 (11724087_x_at) / Fold change /veh FIZ1 (11724087_x_at) / RFU OASL (11726364_x_at) / Fold change /veh OASL (11726364_x_at) / RFU SOX15 (11748057_x_at) / Fold change /veh SOX15 (11748057_x_at) / RFU CD79A (11719716_a_at) / Fold change /veh CD79A (11719716_a_at) / RFU HIST1H1D (11736915_at) / Fold change /veh HIST1H1D (11736915_at) / RFU CASKIN2 (11723855_a_at) / Fold change /veh CASKIN2 (11723855_a_at) / RFU LOC730098 (11760151_x_at) / Fold change /veh LOC730098 (11760151_x_at) / RFU OR4N2 (11742367_at) / Fold change /veh OR4N2 (11742367_at) / RFU PRRT2 (11749266_a_at) / Fold change /veh PRRT2 (11749266_a_at) / RFU SNX32 (11753110_a_at) / Fold change /veh SNX32 (11753110_a_at) / RFU CDHR5 (11726645_a_at) / Fold change /veh CDHR5 (11726645_a_at) / RFU RCAN1 (11760418_a_at) / Fold change /veh RCAN1 (11760418_a_at) / RFU FAM167A (11723789_a_at) / Fold change /veh FAM167A (11723789_a_at) / RFU FAM26E (11764081_at) / Fold change /veh FAM26E (11764081_at) / RFU ISYNA1 (11749810_s_at) / Fold change /veh ISYNA1 (11749810_s_at) / RFU ACY1 (11761880_at) / Fold change /veh ACY1 (11761880_at) / RFU 11764098_at / Fold change /veh 11764098_at / RFU SAMD14 (11745864_x_at) / Fold change /veh SAMD14 (11745864_x_at) / RFU NPB (11741838_a_at) / Fold change /veh NPB (11741838_a_at) / RFU TMPRSS6 (11731388_a_at) / Fold change /veh TMPRSS6 (11731388_a_at) / RFU KRTAP10-2 (11738614_at) / Fold change /veh KRTAP10-2 (11738614_at) / RFU ARHGAP8 /// PRR5-ARHGAP8 (11727945_x_at) / Fold change /veh ARHGAP8 /// PRR5-ARHGAP8 (11727945_x_at) / RFU KRTAP5-7 /// NADSYN1 (11734609_at) / Fold change /veh KRTAP5-7 /// NADSYN1 (11734609_at) / RFU RASL12 (11751679_a_at) / Fold change /veh RASL12 (11751679_a_at) / RFU CDKN2B (11736163_a_at) / Fold change /veh CDKN2B (11736163_a_at) / RFU PRF1 (11729649_at) / Fold change /veh PRF1 (11729649_at) / RFU, ZNF638 /// ZNF638-IT1 / Fold change vs veh, ZNF638 /// ZNF638-IT1 / RFU, PANK3 / Fold change vs veh, PANK3 / RFU, SH3YL1 / Fold change vs veh, SH3YL1 / RFU, ZEB2 / Fold change vs veh, ZEB2 / RFU, NRIP1 / Fold change vs veh, NRIP1 / RFU, PTTG1IP / Fold change vs veh, PTTG1IP / RFU, CAPN2 / Fold change vs veh, CAPN2 / RFU, MED14 / Fold change vs veh, MED14 / RFU, SNORA58 / Fold change vs veh, SNORA58 / RFU, C1orf63 / Fold change vs veh, C1orf63 / RFU, LRRFIP1 / Fold change vs veh, LRRFIP1 / RFU, NDUFAF7 / Fold change vs veh, NDUFAF7 / RFU, SLC12A2 / Fold change vs veh, SLC12A2 / RFU, IBTK / Fold change vs veh, IBTK / RFU, ESF1 / Fold change vs veh, ESF1 / Fold change vs veh, TMEM50B / RFU, TAOK1 / Fold change vs veh, TAOK1 / RFU, ACBD3 / Fold change vs veh, ACBD3 / RFU, TMA16 / Fold change vs veh, TMA16 / RFU, RWDD3 / Fold change vs veh, RWDD3 / RFU, BCAT1 / Fold change vs veh, BCAT1 / RFU, EDEM3 / Fold change vs veh, EDEM3 / RFU, TMEM33 / Fold change vs veh, TMEM33 / RFU, WDR75 / Fold change vs veh, WDR75 / RFU, AHCTF1 / Fold change vs veh, AHCTF1 / RFU, TFRC / Fold change vs veh, TFRC / RFU, ZDHHC17 / Fold change vs veh, ZDHHC17 / RFU, NOM1 / Fold change vs veh, NOM1 / RFU, ARL8B / Fold change vs veh, ARL8B / RFU, ZBTB11 / Fold change vs veh, ZBTB11 / RFU, TAMM41 / Fold change vs veh, TAMM41 / RFU, KIAA1704 /// LOC100996395 / Fold change vs veh, KIAA1704 /// LOC100996395 / RFU, ING1 / Fold change vs veh, ING1 / RFU, TRMT61B / Fold change vs veh, TRMT61B / RFU, FUBP3 / Fold change vs veh, FUBP3 / RFU, TP53 / Fold change vs veh, TP53 / RFU, TNKS2 / Fold change vs veh, TNKS2 / RFU, ZFP14 / Fold change vs veh, ZFP14 / RFU, ACTR2 / Fold change vs veh, ACTR2 / RFU, PPP3R1 / Fold change vs veh, PPP3R1 / RFU, PIK3R1 / Fold change vs veh, PIK3R1 / RFU, HNRNPA1 / Fold change vs veh, HNRNPA1 / RFU, RNF170 / Fold change vs veh, RNF170 / RFU, ZNF28 / Fold change vs veh, ZNF28 / RFU, RNGTT / Fold change vs veh, RNGTT / RFU, OGT / Fold change vs veh, OGT / RFU, BRD1 / Fold change vs veh, BRD1 / RFU, MARS / Fold change vs veh, MARS / RFU, ZNF655 / Fold change vs veh, ZNF655 / RFU, FAHD1 / Fold change vs veh, FAHD1 / RFU, BDP1 / Fold change vs veh, BDP1 / RFU, LRRCC1 / Fold change vs veh, LRRCC1 / RFU, ARID1A / Fold change vs veh, ARID1A / RFU, ZNF146 / Fold change vs veh, ZNF146 / RFU, ZNF330 / Fold change vs veh, ZNF330 / RFU, GPN3 / Fold change vs veh, GPN3 / RFU, C9orf123 / Fold change vs veh, C9orf123 / RFU, N4BP2L2 / Fold change vs veh, N4BP2L2 / RFU, ARFIP1 / Fold change vs veh, ARFIP1 / RFU, FAM179B / Fold change vs veh, FAM179B / RFU, BCL10 / Fold change vs veh, BCL10 / RFU, UHRF1BP1L / Fold change vs veh, UHRF1BP1L / RFU, BET1 / Fold change vs veh, BET1 / RFU, CNOT2 / Fold change vs veh, CNOT2 / RFU, ZNF268 / Fold change vs veh, ZNF268 / Fold change vs veh, ZNF507 / RFU, DGCR2 / Fold change vs veh, DGCR2 / RFU, WDSUB1 / Fold change vs veh, WDSUB1 / Fold change vs veh, HSP90B1 /// MIR3652 / RFU, ADSS / Fold change vs veh, ADSS / RFU, GK / Fold change vs veh, GK / RFU, ZNF148 / Fold change vs veh, ZNF148 / RFU, TAF9 / Fold change vs veh, TAF9 / RFU, SLC1A5 / Fold change vs veh, SLC1A5 / RFU, SLMO2 / Fold change vs veh, SLMO2 / RFU, ABCC4 / Fold change vs veh, ABCC4 / RFU, LOC101060439 /// RAP1B / Fold change vs veh, LOC101060439 /// RAP1B / RFU, RFX7 / Fold change vs veh, RFX7 / RFU, GTPBP10 / Fold change vs veh, GTPBP10 / RFU, CNEP1R1 / Fold change vs veh, CNEP1R1 / RFU, BIVM-ERCC5 /// ERCC5 / Fold change vs veh, BIVM-ERCC5 /// ERCC5 / RFU, ILF3 / Fold change vs veh, ILF3 / RFU 11762660_at / Fold change /veh 11762660_at / RFU VCAN (11757783_s_at) / Fold change /veh VCAN (11757783_s_at) / RFU DDX43 (11728927_at) / Fold change /veh DDX43 (11728927_at) / RFU KRT8 (11758188_x_at) / Fold change /veh KRT8 (11758188_x_at) / RFU NKD1 (11759106_at) / Fold change /veh NKD1 (11759106_at) / RFU SRD5A1 (11742802_a_at) / Fold change /veh SRD5A1 (11742802_a_at) / RFU TPSAB1 /// TPSB2 (11721975_s_at) / Fold change /veh TPSAB1 /// TPSB2 (11721975_s_at) / RFU GSTM3 (11746129_a_at) / Fold change /veh GSTM3 (11746129_a_at) / RFU IL23R (11737362_x_at) / Fold change /veh IL23R (11737362_x_at) / RFU TMEM51 (11727254_a_at) / Fold change /veh TMEM51 (11727254_a_at) / RFU PIWIL2 (11732686_x_at) / Fold change /veh PIWIL2 (11732686_x_at) / RFU ORM1 (11744905_x_at) / Fold change /veh ORM1 (11744905_x_at) / RFU CCDC152 (11743942_at) / Fold change /veh CCDC152 (11743942_at) / RFU ECM1 (11717891_a_at) / Fold change /veh ECM1 (11717891_a_at) / RFU IL23R (11748794_a_at) / Fold change /veh IL23R (11748794_a_at) / RFU TNFAIP8L3 (11732012_x_at) / Fold change /veh TNFAIP8L3 (11732012_x_at) / RFU MBOAT4 (11741988_at) / Fold change /veh MBOAT4 (11741988_at) / RFU 11764193_at / Fold change /veh 11764193_at / RFU TMEM53 (11763286_at) / Fold change /veh TMEM53 (11763286_at) / RFU MAGEB2 (11727129_at) / Fold change /veh MAGEB2 (11727129_at) / RFU TMEM200A (11744735_a_at) / Fold change /veh TMEM200A (11744735_a_at) / RFU CCDC152 (11751479_a_at) / Fold change /veh CCDC152 (11751479_a_at) / RFU FAM211A (11726209_a_at) / Fold change /veh FAM211A (11726209_a_at) / RFU RGS16 (11746705_a_at) / Fold change /veh RGS16 (11746705_a_at) / RFU VCAN (11755009_s_at) / Fold change /veh VCAN (11755009_s_at) / RFU RHOB (11743442_s_at) / Fold change /veh RHOB (11743442_s_at) / RFU RGS16 (11720943_a_at) / Fold change /veh RGS16 (11720943_a_at) / RFU RGS16 (11720944_at) / Fold change /veh RGS16 (11720944_at) / RFU, VPS4B / Fold change vs veh, VPS4B / RFU, CREB1 / Fold change vs veh, CREB1 / RFU, DNAJC13 / Fold change vs veh, DNAJC13 / RFU, GNAQ / Fold change vs veh, GNAQ / RFU, CDK5R1 / Fold change vs veh, CDK5R1 / RFU, ZRANB3 / Fold change vs veh, ZRANB3 / RFU, CUL4A / Fold change vs veh, CUL4A / RFU, CCNY / Fold change vs veh, CCNY / RFU, UFL1 / Fold change vs veh, UFL1 / RFU, COG3 / Fold change vs veh, COG3 / RFU, DIAPH2 / Fold change vs veh, DIAPH2 / RFU, SKA2 / Fold change vs veh, SKA2 / RFU, AFF3 / Fold change vs veh, AFF3 / RFU, LMF1 / Fold change vs veh, LMF1 / RFU, IPO11 / Fold change vs veh, IPO11 / RFU, DFFB / Fold change vs veh, DFFB / RFU, FOXP1 / Fold change vs veh, FOXP1 / RFU, CARD8 / Fold change vs veh, CARD8 / RFU, STRN3 / Fold change vs veh, STRN3 / RFU, ADK / Fold change vs veh, ADK / RFU, RASSF2 / Fold change vs veh, RASSF2 / RFU, WIPF1 / Fold change vs veh, WIPF1 / RFU, LARP1B / Fold change vs veh, LARP1B / RFU, RASA1 / Fold change vs veh, RASA1 / RFU, RB1 / Fold change vs veh, RB1 / RFU, PPFIA1 / Fold change vs veh, PPFIA1 / RFU, MAT2A / Fold change vs veh, MAT2A / RFU, CCT5 / Fold change vs veh, CCT5 / RFU, WDR92 / Fold change vs veh, WDR92 / RFU, CUX1 / Fold change vs veh, CUX1 / RFU, TTC7A / Fold change vs veh, TTC7A / RFU, TMEM135 / Fold change vs veh, TMEM135 / RFU, DEPTOR / Fold change vs veh, DEPTOR / RFU, CPM / Fold change vs veh, CPM / RFU, DNAJB6 / Fold change vs veh, DNAJB6 / RFU, CACNA2D3 / Fold change vs veh, CACNA2D3 / RFU, DTX4 / Fold change vs veh, DTX4 / RFU, TFCP2 / Fold change vs veh, TFCP2 / RFU, GMCL1 /// GMCL1P1 / Fold change vs veh, GMCL1 /// GMCL1P1 / RFU, AEBP2 / Fold change vs veh, AEBP2 / RFU, SNHG1 /// SNORD22 /// SNORD25 /// SNORD26 /// SNORD27 /// SNORD28 /// SNORD29 /// SNORD31 / Fold change vs veh, SNHG1 /// SNORD22 /// SNORD25 /// SNORD26 /// SNORD27 /// SNORD28 /// SNORD29 /// SNORD31 / Fold change (Aza/veh), C12orf56 (ProbeSet 11735607_a_at) / Fold change (ACY-1035/veh), C12orf56 (ProbeSet 11735607_a_at) / Fold change (Aza/veh), FGFR1OP (ProbeSet 11751329_s_at) / Fold change (ACY-1035/veh), FGFR1OP (ProbeSet 11751329_s_at) / Fold change (Aza/veh), VPS36 (ProbeSet 11739960_a_at) / Fold change (ACY-1035/veh), VPS36 (ProbeSet 11739960_a_at) / RFU SYPL1 (11715823_x_at) / Fold change /veh SYPL1 (11715823_x_at) / RFU IGFBP7 (11715501_s_at) / Fold change /veh IGFBP7 (11715501_s_at) / RFU REEP3 (11722064_at) / Fold change /veh REEP3 (11722064_at) / RFU IGLL1 (11728026_x_at) / Fold change /veh IGLL1 (11728026_x_at): dose or concentration left out as unconfirmed
Settings: MV-4-11 cells, 48 hours

Nc1ccc(-c2cccs2)cc1NC(=O)c1ccc2c(c1)cc(C1CC1)n2CCN1CCOCC1 [ACY-1035]
RFU 11764098_at: 18.10 RFU
